Measured values taken from patent publication US8940742B2, “Heterocyclic compounds and uses thereof” (Infinity Pharmaceuticals, Inc., priority 2012, dated 2015).

Experiments:
RAJI p110 δ = RAJI p110 δ (Homo sapiens, UniProt O00329); test: RAJI p110 δ cellular assay (phospho-AKT);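 further: potency based on lowered phosphorylated AKT in RAJI cells, as a readout of PI3K-δ dependent B-cell receptor signaling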
Excerpt: (a) PI3K-δ Selective Assay
Reduction of phospho-AKT is indicative of compounds that may inhibit B-cell proliferation and function in certain diseases.

PI3K δ = target: T1, PI3K δ (Homo sapiens, UniProt O00329); test: PI3-Kinase Promega ADP-Glo Max assay; type: biochemical; conditions: 20 nM kinase, 3 mM ATP, 500 uM diC8-PtdInsP
T1 construct: purchased Millipore
Method: (§1) Promega ADP-Glo Max assay kit (Cat. No. V7002) was utilized to determine IC50 values for α, β, δ and γ isoforms of human Class I PI3 kinases (Millipore). Samples of kinase (20 nM α or δ, 40 nM β or γ isoform) were incubated with compound for 15 minutes at room temperature in reaction buffer (15 mM HEPES pH 7.4, 20 mM NaCl, 1 mM EGTA, 0.02% Tween 20, 10 mM MgCl2, 0.2 mg/mL bovine-γ-globulins) followed by addition of ATP/diC8-PtdInsP mixture to give final concentrations of 3 mM ATP and 500 uM diC8-PtdInsP. Reactions were incubated at room temperature for 2 hours followed by addition of 25 uL of stop solution. After a 40-minute incubation at room temperature, 50 uL of Promega detection mix was added followed by incubation for 1 hour at room temperature. Plates were then read on Envision plate reader in luminescence mode. Data was converted to % inhibition using the following equation below:
(§2) [formula] where S is the sample luminescence, Pos is a positive control without added PI3K, Neg is the negative control without added compound. Data was then plotted as % inhibition vs compound concentration. Data fit to 4 parameter logistic equation to determine IC50 values: […]
(§3) Certain compounds provided herein were tested in PI3-Kinase Promega Assay using procedures as described above to determine IC50 values for α, β, δ and/or γ isoforms.

PI3K α = target: T2, PI3K α (Homo sapiens, UniProt P42336); test: PI3-Kinase Promega ADP-Glo Max assay; type: biochemical; conditions: 20 nM kinase, 3 mM ATP, 500 uM diC8-PtdInsP
T2 construct: purchased Millipore
Method: as §1, §2, §3

PI3K β = target: T3, PI3K β (Homo sapiens, UniProt P42338); test: PI3-Kinase Promega ADP-Glo Max assay; type: biochemical; conditions: 40 nM kinase, 3 mM ATP, 500 uM diC8-PtdInsP
T3 construct: purchased Millipore
Method: as §1, §2, §3

Raw264.7 p110 γ = target: T4, Raw264.7 p110 γ (Mus musculus, UniProt Q9JHG7); test: Raw264.7 p110 γ cellular assay (phospho-AKT); type: cell-based; conditions: serum-starved RAW264.7 cells stimulated with C5a
T4 construct: reduction of phospho-AKT in stimulated RAW 264.7 cells; endogenous in cells; host or cells: RAW264.7 macrophages
Excerpt: (b) PI3K-γ Selective Assay
Briefly, serum-starved PAW264.7 cells are stimulated with a known GPCR agonist C5a. […] Cells can be treated with test compounds prior to, simultaneously with, or subsequent to the stimulation by C5a. RAW 264.7 cells respond to the complement component fragment C5a through activation of the C5a receptor, and the C5a receptor activates macrophages and induces cell migration.

PI3K γ = target: T5, PI3K γ (Homo sapiens, UniProt P48736); test: PI3-Kinase Promega ADP-Glo Max assay; type: biochemical; conditions: 40 nM kinase, 3 mM ATP, 500 uM diC8-PtdInsP
T5 construct: purchased Millipore
Method: Promega ADP-Glo Max assay kit (Cat. No. V7002) was utilized to determine IC50 values for α, β, δ and γ isoforms of human Class I PI3 kinases (Millipore). […] Reactions were incubated at room temperature for 2 hours followed by addition of 25 uL of stop solution. After a 40-minute incubation at room temperature, 50 uL of Promega detection mix was added followed by incubation for 1 hour at room temperature. Plates were then read on Envision plate reader in luminescence mode. Data was converted to % inhibition using the following equation below:
[formula] where S is the sample luminescence, Pos is a positive control without added PI3K, Neg is the negative control without added compound. Data was then plotted as % inhibition vs compound concentration.
as §3

T5 sequence (P48736 whole entry): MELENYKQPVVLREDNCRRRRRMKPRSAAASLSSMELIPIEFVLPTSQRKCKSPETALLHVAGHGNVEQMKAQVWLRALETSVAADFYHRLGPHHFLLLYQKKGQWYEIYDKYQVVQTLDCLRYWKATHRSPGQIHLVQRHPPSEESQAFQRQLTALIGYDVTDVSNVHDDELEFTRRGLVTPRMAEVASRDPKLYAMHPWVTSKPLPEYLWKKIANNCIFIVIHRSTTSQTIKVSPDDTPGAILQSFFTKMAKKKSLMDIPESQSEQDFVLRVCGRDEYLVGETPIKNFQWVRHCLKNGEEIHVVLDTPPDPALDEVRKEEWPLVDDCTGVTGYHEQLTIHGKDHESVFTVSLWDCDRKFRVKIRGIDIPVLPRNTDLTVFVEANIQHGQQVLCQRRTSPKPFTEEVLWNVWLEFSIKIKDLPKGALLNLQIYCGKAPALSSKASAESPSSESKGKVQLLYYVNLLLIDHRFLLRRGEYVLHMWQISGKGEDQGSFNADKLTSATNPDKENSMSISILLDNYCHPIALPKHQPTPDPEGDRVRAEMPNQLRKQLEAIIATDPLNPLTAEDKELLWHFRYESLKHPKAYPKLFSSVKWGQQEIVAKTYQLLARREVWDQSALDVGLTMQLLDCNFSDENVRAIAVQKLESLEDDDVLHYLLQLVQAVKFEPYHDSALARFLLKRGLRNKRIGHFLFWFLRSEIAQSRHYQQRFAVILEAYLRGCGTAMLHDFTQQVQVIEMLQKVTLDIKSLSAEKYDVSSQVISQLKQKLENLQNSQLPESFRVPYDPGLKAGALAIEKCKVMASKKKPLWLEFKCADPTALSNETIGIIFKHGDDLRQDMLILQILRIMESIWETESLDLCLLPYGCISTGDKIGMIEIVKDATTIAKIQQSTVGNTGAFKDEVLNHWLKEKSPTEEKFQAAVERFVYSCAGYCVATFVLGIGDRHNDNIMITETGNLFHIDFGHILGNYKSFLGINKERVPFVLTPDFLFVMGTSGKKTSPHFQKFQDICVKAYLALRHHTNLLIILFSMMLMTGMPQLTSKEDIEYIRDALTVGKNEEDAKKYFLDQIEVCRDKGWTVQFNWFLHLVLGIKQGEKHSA
T3 sequence (P42338 whole entry): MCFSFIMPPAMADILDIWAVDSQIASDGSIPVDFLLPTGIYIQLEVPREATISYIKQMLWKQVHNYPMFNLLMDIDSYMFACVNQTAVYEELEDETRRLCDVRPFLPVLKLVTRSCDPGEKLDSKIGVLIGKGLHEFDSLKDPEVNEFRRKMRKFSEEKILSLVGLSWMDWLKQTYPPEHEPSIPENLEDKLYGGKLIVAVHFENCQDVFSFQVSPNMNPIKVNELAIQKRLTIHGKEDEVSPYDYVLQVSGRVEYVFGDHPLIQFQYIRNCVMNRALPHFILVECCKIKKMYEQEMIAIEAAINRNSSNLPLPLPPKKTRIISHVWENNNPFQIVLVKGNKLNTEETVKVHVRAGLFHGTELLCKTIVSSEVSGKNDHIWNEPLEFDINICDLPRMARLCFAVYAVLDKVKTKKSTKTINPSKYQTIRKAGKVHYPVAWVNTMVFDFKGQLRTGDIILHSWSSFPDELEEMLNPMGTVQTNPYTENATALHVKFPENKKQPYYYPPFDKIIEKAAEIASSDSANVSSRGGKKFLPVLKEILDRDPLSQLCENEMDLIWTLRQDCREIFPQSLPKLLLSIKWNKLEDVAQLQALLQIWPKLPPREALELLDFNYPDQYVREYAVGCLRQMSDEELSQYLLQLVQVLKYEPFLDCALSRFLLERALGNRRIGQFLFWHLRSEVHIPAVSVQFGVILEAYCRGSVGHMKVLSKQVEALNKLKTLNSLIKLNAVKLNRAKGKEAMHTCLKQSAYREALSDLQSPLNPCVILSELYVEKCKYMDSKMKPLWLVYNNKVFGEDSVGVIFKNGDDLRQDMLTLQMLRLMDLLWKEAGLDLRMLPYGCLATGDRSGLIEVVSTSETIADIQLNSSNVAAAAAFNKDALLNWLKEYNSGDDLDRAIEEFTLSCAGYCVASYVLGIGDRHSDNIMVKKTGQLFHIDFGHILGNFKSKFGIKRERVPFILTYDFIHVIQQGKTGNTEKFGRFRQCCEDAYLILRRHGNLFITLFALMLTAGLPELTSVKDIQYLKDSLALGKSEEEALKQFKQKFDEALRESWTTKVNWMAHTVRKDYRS
T3 sequence (P27986 whole entry partner): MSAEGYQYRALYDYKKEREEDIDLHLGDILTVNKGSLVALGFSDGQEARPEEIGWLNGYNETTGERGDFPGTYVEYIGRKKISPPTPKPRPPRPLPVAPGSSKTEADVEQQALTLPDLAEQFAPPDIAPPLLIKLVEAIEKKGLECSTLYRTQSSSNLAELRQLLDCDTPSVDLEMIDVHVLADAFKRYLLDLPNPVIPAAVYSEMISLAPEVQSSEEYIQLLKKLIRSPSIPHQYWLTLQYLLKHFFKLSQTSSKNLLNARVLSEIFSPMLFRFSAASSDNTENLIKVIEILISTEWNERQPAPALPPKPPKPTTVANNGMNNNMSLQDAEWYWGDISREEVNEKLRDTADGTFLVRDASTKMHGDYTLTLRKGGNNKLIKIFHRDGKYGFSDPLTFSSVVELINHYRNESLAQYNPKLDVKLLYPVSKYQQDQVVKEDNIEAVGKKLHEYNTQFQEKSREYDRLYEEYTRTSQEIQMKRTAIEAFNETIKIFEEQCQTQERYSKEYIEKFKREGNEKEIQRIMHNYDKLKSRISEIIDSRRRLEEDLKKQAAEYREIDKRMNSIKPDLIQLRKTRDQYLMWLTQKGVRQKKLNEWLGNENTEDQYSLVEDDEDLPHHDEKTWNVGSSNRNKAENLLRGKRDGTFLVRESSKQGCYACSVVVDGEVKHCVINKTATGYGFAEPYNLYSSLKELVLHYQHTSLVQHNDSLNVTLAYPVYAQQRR
T1 sequence (O00329 whole entry): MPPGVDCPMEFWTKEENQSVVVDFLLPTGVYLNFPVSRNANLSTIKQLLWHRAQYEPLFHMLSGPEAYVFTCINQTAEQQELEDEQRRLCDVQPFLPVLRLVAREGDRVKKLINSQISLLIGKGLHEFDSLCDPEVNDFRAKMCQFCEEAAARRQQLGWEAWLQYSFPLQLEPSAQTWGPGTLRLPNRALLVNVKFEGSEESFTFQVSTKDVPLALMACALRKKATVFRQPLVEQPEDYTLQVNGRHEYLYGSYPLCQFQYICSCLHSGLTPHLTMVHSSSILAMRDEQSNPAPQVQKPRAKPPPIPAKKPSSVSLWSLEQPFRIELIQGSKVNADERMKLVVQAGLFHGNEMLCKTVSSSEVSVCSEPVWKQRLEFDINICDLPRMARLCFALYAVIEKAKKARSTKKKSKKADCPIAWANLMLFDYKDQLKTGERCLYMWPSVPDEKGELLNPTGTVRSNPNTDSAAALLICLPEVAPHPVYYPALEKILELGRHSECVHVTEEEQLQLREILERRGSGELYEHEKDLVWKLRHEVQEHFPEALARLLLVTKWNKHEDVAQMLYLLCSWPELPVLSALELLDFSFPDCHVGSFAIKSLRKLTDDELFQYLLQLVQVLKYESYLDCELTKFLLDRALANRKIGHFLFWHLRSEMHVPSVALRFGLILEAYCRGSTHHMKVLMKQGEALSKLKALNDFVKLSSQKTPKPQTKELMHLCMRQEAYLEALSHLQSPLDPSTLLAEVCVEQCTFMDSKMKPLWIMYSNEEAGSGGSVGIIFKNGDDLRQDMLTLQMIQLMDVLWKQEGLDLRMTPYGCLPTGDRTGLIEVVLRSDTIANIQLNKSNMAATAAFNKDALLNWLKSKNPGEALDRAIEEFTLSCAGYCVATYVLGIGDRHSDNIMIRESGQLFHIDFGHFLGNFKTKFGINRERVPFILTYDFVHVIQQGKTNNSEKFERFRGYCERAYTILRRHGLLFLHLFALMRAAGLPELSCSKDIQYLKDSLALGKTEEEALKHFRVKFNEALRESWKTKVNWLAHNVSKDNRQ
T1 sequence (P27986 whole entry partner): as the sequence (P27986 whole entry partner) above
Sequence of RAJI p110 δ (O00329 whole entry): as the sequence (O00329 whole entry) above
Sequence of RAJI p110 δ (P27986 whole entry partner): as the sequence (P27986 whole entry partner) above

IC50 (RAJI p110 δ) [µM] | IC50 (PI3K δ) [µM] | IC50 (PI3K α) [µM] | IC50 (PI3K β) [µM] | IC50 (Raw264.7 p110 γ) [µM] | IC50 (PI3K γ) [µM] | Structure (SMILES)
0.1 to 1 | 1 to 10 | > 10 | 1 to 10 | 0.1 to 1 | 1 to 10 | Cc1ccn2ncc(C(=O)N[C@@H](C)c3cc4cccc(Cl)c4c(=O)n3-c3ccccc3)c2n1 [Compound 82]
0.1 to 1 | 1 to 10 | > 10 | 1 to 10 | 0.1 to 1 | 1 to 10 | C[C@H](NC(=O)c1c(N)nn2cccnc12)c1cc2ccsc2c(=O)n1-c1ccccc1 [Compound 198]
< 0.1 | < 0.1 | 1 to 10 | 0.1 to 1 | < 0.1 | 0.1 to 1 | C[C@H](NC(=O)c1nccnc1N)c1cc2cccc(Cl)c2c(=O)n1-c1ccccc1 [Compound 4, (S)-3-amino-N-(1-(8-chloro-1-oxo-2-phenyl-1,2-dihydroisoquinolin-3-yl)ethyl)pyrazine-2-carboxamide]
0.1 to 1 | 0.1 to 1 | 0.1 to 1 | < 0.1 | < 0.1 | < 0.1 | C[C@H](NC(=O)c1nc(-c2cncc(NS(C)(=O)=O)c2)cnc1N)c1cc2cccc(Cl)c2c(=O)n1-c1ccccc1 [Compound 107]
< 0.1 | 1 to 10 | 1 to 10 | > 10 | < 0.1 | 0.1 to 1 | CC(=O)Nc1ccc(-c2cccc3cc([C@H](C)NC(=O)c4c(N)nn5cccnc45)n(-c4ccccc4)c(=O)c23)cc1 [Compound 203]
0.1 to 1 | 0.1 to 1 | – | 1 to 10 | 0.1 to 1 | 1 to 10 | C[C@H](NC(=O)c1cnc2cccnn12)c1cc2cccc(Cl)c2c(=O)n1-c1ccccc1 [Compound 13]
– | – | – | – | 1 to 10 | – | C[C@H](NC(=O)c1cccnc1N)c1cc2cccc(Cl)c2c(=O)n1-c1ccccc1 [Compound 3]
< 0.1 | 0.1 to 1 | 1 to 10 | 0.1 to 1 | – | – | C[C@H](NC(=O)c1c(N)nn2cccnc12)c1cc2cccc(Cl)c2c(=O)n1-c1ccccc1 [Compound 70]
– | – | – | – | > 10 | – | C[C@H](NC(=O)c1nc(Br)cnc1N)c1cc2cccc(Cl)c2c(=O)n1-c1ccccc1 [Compound 15]
0.1 to 1 | 1 to 10 | – | 1 to 10 | < 0.1 | 0.1 to 1 | C[C@H](NC(=O)c1nc(-c2cccc(S(C)(=O)=O)c2)cnc1N)c1cc2cccc(Cl)c2c(=O)n1-c1ccccc1 [Compound 84]
– | > 10 | > 10 | > 10 | – | > 10 | Nc1nn2cccnc2c1C(=O)NCc1cc2cccc(Cl)c2c(=O)n1-c1ccccc1 [Compound 274]
– | > 10 | > 10 | 1 to 10 | – | > 10 | C[C@H](NC(=O)c1c(N)nn2cccnc12)c1cc2cccc(Cl)c2c(=O)n1CC(=O)N(C)C [Compound 296]
– | 1 to 10 | > 10 | > 10 | – | > 10 | Nc1nccnc1C(=O)N1CCC[C@H]1c1cc2cccc(Cl)c2c(=O)n1-c1ccccc1 [Compound 148]
– | 1 to 10 | > 10 | > 10 | – | 1 to 10 | C[C@H](NC(=O)c1c(N)nn2cccnc12)c1cc2cccc(CNCC3CCCO3)c2c(=O)n1-c1ccccc1 (stereo partly shown) [Compound 229]
– | 1 to 10 | > 10 | > 10 | – | > 10 | CNCc1cccc2cc([C@H](C)NC(=O)c3c(N)nn4cccnc34)n(-c3ccccc3)c(=O)c12 [Compound 230]
– | > 10 | > 10 | > 10 | – | > 10 | C[C@H](NC(=O)c1c(N)nn2cccnc12)c1nn2ccc(-c3cnn(C)c3)c2c(=O)n1-c1ccccc1 [Compound 287]
– | < 0.1 | > 10 | > 10 | – | > 10 | C[C@H](NC(=O)c1c(N)nn2cccnc12)c1cc2cccc(CN(C)C)c2c(=O)n1-c1ccccc1 [Compound 231]
– | > 10 | > 10 | > 10 | – | 1 to 10 | COc1cc(-c2cccc3cc([C@H](C)NC(=O)c4c(N)nn5cccnc45)n(C4CCCCC4)c(=O)c23)ccn1 [Compound 233]

IC50 (RAJI p110 δ) [µM] | IC50 (PI3K δ) [µM] | IC50 (PI3K α) [µM] | IC50 (PI3K β) [µM] | IC50 (Raw264.7 p110 γ) [µM] | IC50 (PI3K γ) [µM] | Structure (SMILES)
– | > 10 | > 10 | > 10 | – | 1 to 10 | C[C@H](NC(=O)c1nc(-c2cccc(NS(C)(=O)=O)c2)cnc1N)c1cc2cccc(N3CCOCC3)c2c(=O)n1-c1ccccc1 [Compound 263]
– | 1 to 10 | 1 to 10 | 1 to 10 | – | 1 to 10 | C[C@H](NC(=O)c1nc(-c2cccc(S(=O)(=O)N3CCN(C)CC3)c2)cnc1N)c1cc2cccc(Cl)c2c(=O)n1-c1ccccc1 [Compound 100]
– | 1 to 10 | > 10 | > 10 | – | 1 to 10 | COc1ccc(-c2cnc(N)c(C(=O)N[C@@H](C)c3cc4cccc(Cl)c4c(=O)n3-c3ccccc3)n2)cc1F [Compound 94]
– | – | – | – | > 10 | – | C[C@H](NC(=O)c1cnccn1)c1cc2cccc(Cl)c2c(=O)n1-c1ccccc1 [Compound 14]
– | < 0.1 | > 10 | 1 to 10 | – | 0.1 to 1 | C[C@H](NC(=O)c1nccnc1N)c1nc2cccc(Cl)c2c(=O)n1-c1ccccc1 [Compound 289]
– | > 10 | > 10 | > 10 | – | > 10 | CC(=O)Nc1ncc(-c2cccc(NS(C)(=O)=O)c2)nc1C(=O)N[C@@H](C)c1cc2cccc(Cl)c2c(=O)n1C [Compound 185]
– | > 10 | > 10 | > 10 | – | > 10 | COc1cc(-c2csc3cc([C@H](C)NC(=O)c4c(N)nn5cccnc45)n(-c4ccccc4)c(=O)c23)ccn1 [Compound 213]
– | 1 to 10 | > 10 | > 10 | – | 1 to 10 | C[C@H](NC(=O)c1c(N)nn2cccnc12)c1cc2cccc(OC(F)(F)F)c2c(=O)n1-c1ccccc1 [Compound 302]
– | 1 to 10 | > 10 | > 10 | – | 1 to 10 | Cc1cnc(C(=O)N[C@@H](C)c2c(Br)c3cccc(Cl)c3c(=O)n2-c2ccccc2)c(N)n1 [Compound 288]
– | > 10 | > 10 | > 10 | – | > 10 | CC(C)Nc1cccc2cc([C@H](C)NC(=O)c3c(N)nn4cccnc34)n(-c3ccccc3)c(=O)c12 [Compound 268]
– | > 10 | > 10 | > 10 | – | > 10 | C[C@H](NC(=O)c1c(N)nn2cccnc12)C1Cc2cccc(F)c2C(=O)N1c1ccccc1 (stereo partly shown) [Compound 304]
– | > 10 | > 10 | > 10 | – | > 10 | C[C@H](NC(=O)c1c(N)nn2cccnc12)c1cc2cccc(N3CCN(C)CC3)c2c(=O)n1-c1ccccc1 [Compound 264]
– | > 10 | > 10 | > 10 | – | > 10 | C[C@H](NC(=O)c1nc(-c2cccc(S(=O)(=O)N3CCOCC3)c2)cnc1N)c1cc2cccc(Cl)c2c(=O)n1-c1ccccc1 [Compound 95]
< 0.1 | – | – | – | < 0.1 | – | C[C@H](NC(=O)c1cncc2cccnc12)c1cc2cccc(C(F)(F)F)c2c(=O)n1-c1ccccc1 [Compound 67]
– | < 0.1 | 1 to 10 | < 0.1 | – | 1 to 10 | CNCCn1c([C@H](C)NC(=O)c2c(N)nn3cccnc23)cc2cccc(Cl)c2c1=O [Compound 241]
1 to 10 | – | – | – | 1 to 10 | – | C[C@H](NC(=O)c1csc2cccnc12)c1cc2cccc(Cl)c2c(=O)n1-c1ccccc1 [Compound 68]
– | > 10 | > 10 | > 10 | – | > 10 | C[C@H](NC(=O)c1c(N)nn2cccnc12)c1cc2cccc(/C=C/c3ccccc3)c2c(=O)n1-c1ccccc1 [Compound 199]
